molecular target: T1, sGC α1/β1 heterodimer stably expressed in CHO-K1 cell line (CHO-K1/sGC) (Homo sapiens, UniProt Q02108+Q02153); test: Cell-based sGC Functional Assay (CASA Assay), cGMP generation; details: CHO-K1/sGC cells, 1 hr at 37° C., cGMP by HTRF, 4P fit; presence or absence of 1 μM DETA-NO not given; read-out: IP (nM) (inflection point)
T1 construct: expressed in transfected cells
T1 sequence (Q02108 1-690): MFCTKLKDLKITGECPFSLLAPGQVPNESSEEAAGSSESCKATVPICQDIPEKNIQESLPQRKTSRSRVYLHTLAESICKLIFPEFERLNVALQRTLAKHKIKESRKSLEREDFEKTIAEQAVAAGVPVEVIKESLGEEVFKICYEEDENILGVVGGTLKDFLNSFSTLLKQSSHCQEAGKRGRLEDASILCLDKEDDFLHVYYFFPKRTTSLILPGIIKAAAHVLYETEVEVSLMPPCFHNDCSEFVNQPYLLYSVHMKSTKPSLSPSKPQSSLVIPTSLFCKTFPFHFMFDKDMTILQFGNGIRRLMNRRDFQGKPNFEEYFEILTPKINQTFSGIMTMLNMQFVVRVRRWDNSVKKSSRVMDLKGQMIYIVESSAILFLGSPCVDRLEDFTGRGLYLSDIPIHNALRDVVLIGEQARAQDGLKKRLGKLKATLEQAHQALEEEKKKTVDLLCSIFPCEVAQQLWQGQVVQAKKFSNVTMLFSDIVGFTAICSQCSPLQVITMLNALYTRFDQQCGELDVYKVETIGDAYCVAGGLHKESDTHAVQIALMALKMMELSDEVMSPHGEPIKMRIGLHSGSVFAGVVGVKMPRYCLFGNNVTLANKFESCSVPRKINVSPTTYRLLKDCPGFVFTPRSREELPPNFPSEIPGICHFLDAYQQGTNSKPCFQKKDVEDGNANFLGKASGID
T1 sequence (Q02153 1-619): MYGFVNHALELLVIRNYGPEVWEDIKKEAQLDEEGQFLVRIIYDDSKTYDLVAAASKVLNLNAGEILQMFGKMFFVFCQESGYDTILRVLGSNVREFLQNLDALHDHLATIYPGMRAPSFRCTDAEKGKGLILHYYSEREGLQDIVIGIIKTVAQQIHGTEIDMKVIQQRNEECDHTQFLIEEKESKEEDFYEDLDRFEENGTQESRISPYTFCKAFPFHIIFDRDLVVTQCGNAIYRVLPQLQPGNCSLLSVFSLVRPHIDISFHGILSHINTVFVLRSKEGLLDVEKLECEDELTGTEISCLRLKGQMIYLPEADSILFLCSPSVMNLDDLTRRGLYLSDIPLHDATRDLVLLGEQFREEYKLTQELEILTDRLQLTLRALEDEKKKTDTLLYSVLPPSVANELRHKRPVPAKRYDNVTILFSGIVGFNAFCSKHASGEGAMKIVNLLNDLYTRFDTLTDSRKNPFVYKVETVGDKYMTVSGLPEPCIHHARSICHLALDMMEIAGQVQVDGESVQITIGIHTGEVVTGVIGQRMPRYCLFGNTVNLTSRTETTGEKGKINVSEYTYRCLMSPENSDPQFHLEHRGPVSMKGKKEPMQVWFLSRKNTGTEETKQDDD
Outline: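 Readout is HTRF cGMP in lysates, normalised to the maximal response of reference sGC activator Compound A (100%), with a 4P fit giving IP and fold induction. Cells were CHO-K1/sGC (human α1/β1) in EBSS buffer with IBMX, incubated 1 hr at 37° C with compound. Run with and without 1 μM DETA-NO; final DMSO 2.5%.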

Row | EC50 [nM] | SMILES
1 | 10.1 | Cc1ccc(C2(C)C(=O)Nc3nc(-c4cn5ncnc5c(CCCC(F)(F)F)n4)nc(N)c32)nc1 (centres unmarked) [Example 46B, 4-amino-5-methyl-5-(5-methylpyridin-2-yl)-2-(8-(4,4,4-trifluorobutyl)-[1,2,4]triazolo[1,5-a]pyrazin-6-yl)-5H-pyrrolo[2,3-d]pynmidin-6(7H)-one]
2 | 77.9 | CC1(c2ccc(C#N)cn2)C(=O)Nc2nc(-c3cn4ncnc4c(CCCC(F)(F)F)n3)nc(N)c21 (centres unmarked) [Example 48A, 6-(4-amino-5-methyl-6-oxo-2-(8-(4,4,4-trifluorobutyl)-[1,2,4]triazolo[1,5-a]pyrazin-6-yl)-6,7-dihydro-5H-pyrrolo[2,3-d]pyrimidin-5-yl)nicotinonitrile]
3 | 150 | CC1(c2cnc(C(F)(F)F)cn2)C(=O)Nc2nc(-c3cn4ncnc4c(CCCC(F)(F)F)n3)nc(N)c21 (centres unmarked) [Example 50B, 4-amino-5-methyl-2-(8-(4,4,4-trifluorobutyl)-[1,2,4]triazolo[1,5-a]pyrazin-6-yl)-5-(5-(trifluoromethyl)pyrazin-2-yl)-5H-pyrrolo[2,3-d]pyrimidin-6(7H)-one]
4 | 63.2 | CCCc1nc(-c2nc(N)c3c(n2)NC(=O)[C@@]3(C)c2ccc(F)cc2)cn2ncnc12 [Example 52A, (S)-4-amino-5-(4-fluorophenyl)-5-methyl-2-(8-propyl-[1,2,4]triazolo[1,5-a]pyrazin-6-yl)-5,7-dihydro-6H-pyrrolo[2,3-d]pyrimidin-6-one]
5 | 26.9 | CCCc1nc(-c2nc(N)c3c(n2)NC(=O)C3(C)c2ccc(Cl)cc2)cn2ncnc12 (centres unmarked) [Example 53A, 4-amino-5-(4-chlorophenyl)-5-methyl-2-(8-propyl-[1,2,4]triazolo[1,5-a]pyrazin-6-yl)-5H-pyrrolo[2,3-d]pyrimidin-6(7H)-one]
6 | 318 | CCCc1nc(-c2nc(N)c3c(n2)NC(=O)C3(C)c2ccc(F)cn2)cn2ncnc12 (centres unmarked) [Example 54B, 4-amino-5-(5-fluoropyridin-2-yl)-5-methyl-2-(8-propyl-[1,2,4]triazolo[1,5-a]pyrazin-6-yl)-5H-pyrrolo[2,3-d]pyrimidin-6(7H)-one]
7 | 384 | CCCc1nc(-c2nc(N)c3c(n2)NC(=O)C3(c2ccc(C(F)(F)F)cn2)C2CC2)cn2ncnc12 (centres unmarked) [Example 56A, 4-amino-5-cyclopropyl-2-(8-propyl-[1,2,4]triazolo[1,5-a]pyrazin-6-yl)-5-(5-(trifluoromethyl)pyridin-2-yl)-5H-pyrrolo[2,3-d]pyrimidin-6(7H)-one]
8 | 577 | CCCc1nc(-c2nc(N)c3c(n2)NC(=O)C3(c2ccc(Cl)cn2)C2CC2)cn2ncnc12 (centres unmarked) [Example 57A, 4-amino-5-(5-chloropyridin-2-yl)-5-cyclopropyl-2-(8-propyl-[1,2,4]triazolo[1,5-a]pyrazin-6-yl)-5H-pyrrolo[2,3-d]pynmidin-6(7H)-one]
9 | 242 | CCCc1nc(-c2nc(N)c3c(n2)NC(=O)C3(c2ccc(F)c(F)c2)C2CC2)cn2ncnc12 (centres unmarked) [Example 58A, 4-amino-5-cyclopropyl-5-(3,4-difluorophenyl)-2-(8-propyl-[1,2,4]triazolo[1,5-a]pyrazin-6-yl)-5H-pyrrolo[2,3-d]pyrimidin-6(7H)-one]
10 | 263 | CCCc1nc(-c2nc(N)c3c(n2)NC(=O)C3(c2ccc(F)cn2)C2CC2)cn2ncnc12 (centres unmarked) [Example 59A, 4-amino-5-cyclopropyl-5-(5-fluoropyridin-2-yl)-2-(8-propyl-[1,2,4]triazolo[1,5-a]pyrazin-6-yl)-5H-pyrrolo[2,3-d]pyrimidin-6(7H)-one]
11 | 22.6 | CCCCc1nc(-c2nc(N)c3c(n2)NC(=O)[C@@]3(C)c2ccc(F)cc2)cn2ncnc12 [Example 60A, (S)-4-amino-2-(8-butyl-[1,2,4]triazolo[1,5-a]pyrazin-6-yl)-5-(4-fluorophenyl)-5-methyl-5,7-dihydro-6H-pyrrolo[2,3-d]pyrimidin-6-one]
12 | 9.7 | CCCCc1nc(-c2nc(N)c3c(n2)NC(=O)C3(C)c2ccc(F)cn2)cn2ncnc12 (centres unmarked) [Example 61B, 4-amino-2-(8-butyl-[1,2,4]triazolo[1,5-d]pyrazin-6-yl)-5-(5-fluoropyridin-2-yl)-5-methyl-5H-pyrrolo[2,3-d]pyrimidin-6(7H)-one]
13 | 51 | CCCCc1nc(-c2nc(N)c3c(n2)NC(=O)C3(C)c2ccc(Cl)c(F)c2)cn2ncnc12 (centres unmarked) [Example 62B, 4-amino-2-(8-butyl-[1,2,4]triazolo[1,5-a]pyrazin-6-yl)-5-(4-chloro-3-fluorophenyl)-5-methyl-5H-pyrrolo[2,3-d]pyrimidin-6(7H)-one]
14 | 21.9 | CCCCc1nc(-c2nc(N)c3c(n2)NC(=O)C3(C)c2ccc(Cl)cc2)cn2ncnc12 (centres unmarked) [Example 63A, 4-amino-2-(8-butyl-[1,2,4]triazolo[1,5-a]pyrazin-6-yl)-5-(4-chlorophenyl)-5-methyl-5H-pyrrolo[2,3-d]pyrimidin-6(7H)-one]
15 | 5.1 | CCCCc1nc(-c2nc(N)c3c(n2)NC(=O)C3(C)c2ccc(F)c(F)c2)cn2ncnc12 (centres unmarked) [Example 64B, 4-amino-2-(8-butyl-[1,2,4]triazolo[1,5-a]pyrazin-6-yl)-5-(3,4-difluorophenyl)-5-methyl-5H-pyrrolo[2,3-d]pyrimidin-6(7H)-one]
16 | 2.6 | CCCCc1nc(-c2nc(N)c3c(n2)NC(=O)C3(c2ccc(F)c(F)c2)C2CC2)cn2ncnc12 (centres unmarked) [Example 65A, 4-amino-2-(8-butyl-[1,2,4]triazolo[1,5-a]pyrazin-6-yl)-5-cyclopropyl-5-(3,4-difluorophenyl)-5H-pyrrolo[2,3-d]pyrimidin-6(7H)-one]
17 | 34.2 | CCCCc1nc(-c2nc(N)c3c(n2)NC(=O)C3(c2ccc(F)cn2)C2CC2)cn2ncnc12 (centres unmarked) [Example 66A, 4-amino-2-(8-butyl-[1,2,4]triazolo[1,5-a]pyrazin-6-yl)-5-cyclopropyl-5-(5-fluoropyridin-2-yl)-5H-pyrrolo[2,3-d]pyrimidin-6(7H)-one]
18 | 25.5 | CCCCc1nc(-c2nc(N)c3c(n2)NC(=O)C3(C)c2ccc(C(F)(F)F)cn2)cn2ncnc12 (centres unmarked) [Example 67B, 4-amino-2-(8-butyl-[1,2,4]triazolo[1,5-a]pyrazin-6-yl)-5-methyl-5-(5-(trifluoromethyl)pyridin-2-yl)-5H-pyrrolo[2,3-d]pyrimidin-6(7H)-one]
19 | 18.7 | CCCCc1nc(-c2nc(N)c3c(n2)NC(=O)C3(c2ccc(Cl)cn2)C2CC2)cn2ncnc12 (centres unmarked) [Example 68A, 4-amino-2-(8-butyl-[1,2,4]triazolo[1,5-a]pyrazin-6-yl)-5-(5-chloropyridin-2-yl)-5-cyclopropyl-5H-pyrrolo[2,3-d]pyrimidin-6(7H)-one]
20 | 13.7 | CCCCc1nc(-c2nc(N)c3c(n2)NC(=O)C3(C)c2ccc(Cl)cn2)cn2ncnc12 (centres unmarked) [Example 69A, 4-amino-2-(8-butyl-[1,2,4]triazolo[1,5-a]pyrazin-6-yl)-5-(5-chloropyridin-2-yl)-5-methyl-5H-pyrrolo[2,3-d]pyrimidin-6(7H)-one]
21 | 41.8 | CCCCc1nc(-c2nc(N)c3c(n2)NC(=O)C3(c2ccc(C(F)(F)F)cn2)C2CC2)cn2ncnc12 (centres unmarked) [Example 70A, 4-amino-2-(8-butyl-[1,2,4]triazolo[1,5-a]pyrazin-6-yl)-5-cyclopropyl-5-(5-(trifluoromethyl)pyridin-2-yl)-5H-pyrrolo[2,3-d]pyrimidin-6(7H)-one]
22 | 5.5 | CCCCc1nc(-c2nc(N)c3c(n2)NC(=O)C3(C)c2ccc(C)cn2)cn2ncnc12 (centres unmarked) [Example 71B, 4-amino-2-(8-butyl-[1,2,4]triazolo[1,5-a]pyrazin-6-yl)-5-methyl-5-(5-methylpyridin-2-yl)-5H-pyrrolo[2,3-d]pyrimidin-6(7H)-one]

same assay, conditions: CHO-K1/sGC cells, 1 hr at 37° C., cGMP by HTRF; presence or absence of 1 μM DETA-NO not given; read-out: % Act. (percent activation relative to maximum cGMP production of Compound A = 100%)

Row | Emax [%] | SMILES
23 | 90 | CCCCc1nc(-c2nc(N)c3c(n2)NC(=O)C3(C)c2ccc(F)c(F)c2)cn2ncnc12 (centres unmarked) [Example 64B, 4-amino-2-(8-butyl-[1,2,4]triazolo[1,5-a]pyrazin-6-yl)-5-(3,4-difluorophenyl)-5-methyl-5H-pyrrolo[2,3-d]pyrimidin-6(7H)-one]

Source: US9822130B2, “Triazolo-pyrazinyl derivatives useful as soluble guanylate cyclase activators” (Merck Sharp & Dohme Corp., priority 2014, dated 2017)
